Target: T1, recombinant human MetAP2 (Homo sapiens, UniProt P50579)
T1 construct: Flag; made in house; host or cells: Sf9 insect cells
Assay: Inhibition of recombinant human MetAP2 activity (Amplex red fluorescence assay)
Format: biochemical
Settings: manganese Flag-MetAP2, 0.75 mM Methionine-Alanine-Serine substrate, 30 minutes at 25° C., pH 7.5, 1% DMSO
Description: Compounds are tested for their capacity to inhibit recombinant human MetAP2 activity using the following assay.
Human recombinant Flag-MetAP2 expressed in Sf9 cells followed by affinity purification and EDTA treatment to remove endogenous active site cation is dialysed against MnCl2 to produce the manganese enzyme used in the assay. The assay is carried out for 30 minutes at 25° C. in 50 mM HEPES buffer containing 100 mM NaCl, pH 7.5 the presence of 0.75 mM Methionine-Alanine-Serine (MAS) substrate and 50 μg/ml amino acid oxidase using a dilution of purified MetAP2 giving approximately 50,000 RFU control activity. Cleavage of the substrate by MetAP2 and oxidation of free methionine by amino acid oxidase is detected and quantified using fluorescence generated by Amplex red (10-acetyl-3,7-dihydroxyphenoxazine) in combination with horseradish peroxidase which detects H2O2 released during the oxidation step. The fluorescent signal is detected using a multiwell fluorimeter. Compounds are diluted in DMSO prior to addition to assay buffer, the final DMSO concentration in the assay being 1%.
The IC50 is defined as the concentration at which a given compound achieves 50% inhibition of control. IC50 values are calculated using the XLfit software package (version 2.0.5).

T1 sequence (P50579 whole entry): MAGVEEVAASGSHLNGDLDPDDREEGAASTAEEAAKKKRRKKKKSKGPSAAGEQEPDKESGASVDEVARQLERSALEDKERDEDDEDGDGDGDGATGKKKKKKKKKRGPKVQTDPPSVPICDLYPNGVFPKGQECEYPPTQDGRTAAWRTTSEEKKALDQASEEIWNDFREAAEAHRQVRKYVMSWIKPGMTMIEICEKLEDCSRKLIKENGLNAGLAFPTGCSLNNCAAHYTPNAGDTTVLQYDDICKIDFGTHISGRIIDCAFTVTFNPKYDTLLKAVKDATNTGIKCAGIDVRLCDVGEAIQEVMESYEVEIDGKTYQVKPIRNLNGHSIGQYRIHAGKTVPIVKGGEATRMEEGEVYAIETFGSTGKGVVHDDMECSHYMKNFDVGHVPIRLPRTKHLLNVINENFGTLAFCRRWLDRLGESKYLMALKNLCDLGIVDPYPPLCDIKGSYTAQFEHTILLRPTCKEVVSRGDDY

Structure (SMILES)	IC50 [nM]
CCN(CC)CCCNc1ccccc1S(=O)(=O)Cc1ccc(-c2ccoc2)c(OC)c1C(=O)O [6-[2-(3-Diethylaminopropylamino)benzenesulphonylmethyl]-3-(furan-3-yl)-2-methoxybenzoic acid]	< 200
COc1c(-c2ccoc2)ccc(CS(=O)(=NC#N)c2ccccc2)c1C(=O)O (stereo not shown) [6-[(N-cyano-S-phenylsulphonimidoyl)methyl]-3-(furan-3-yl)-2-methoxybenzoic acid]	< 200
CCN(CC)C/C=C/c1ccccc1S(=O)(=O)Cc1ccc(-c2ccoc2)c(OC)c1C(=O)O [(E)-6-((2-(3-(diethylamino)prop-1-enyl)benzenesulfonyl)methyl)-3-(furan-3-yl)-2-methoxybenzoic acid]	200 to 2000
CCN(CC)C/C=C\c1cc(F)ccc1S(=O)(=O)Cc1ccc(-c2ccoc2)c(OCC#N)c1C(=O)O [(Z)-2-Cyanomethoxy-6-((2-(3-(Diethylamino)prop-1-enyl)-4-fluorobenzenesulfonyl)methyl)-3-(furan-3-yl)benzoic acid]	< 200
COc1c(-c2ccoc2)ccc(CS(=O)(=O)c2ccccc2/C=C\CN2CCCCC2)c1C(=O)O [(Z)-3-(Furan-3-yl)-2-methoxy-6-((2-(3-(piperidin-1-yl)prop-1-enyl)benzenesulfonyl)methyl)benzoic acid]	< 200
CCN(CC)C/C=C\c1cc(F)ccc1S(=O)(=O)Cc1ccc(-c2ccoc2)c(OC)c1C(=O)O [(Z)-6-((2-(3-(Diethylamino)prop-1-enyl)-4-fluorophenylsulfonyl)methyl)-3-(furan-3-yl)-2-methoxybenzoic acid]	< 200
CCN(CC)C/C=C\c1ccccc1S(=O)(=O)Cc1ccc(-c2ccoc2)c(OC)c1C(=O)O [(Z)-6-((2-(3-(Diethylamino)prop-1-enyl)benzenesulfonyl)methyl)-3-(furan-3-yl)-2-methoxybenzoic acid]	< 200
